The values that follow come from patent US20100048564A1, “FUSED BICYCLIC HETEROARYL DERIVATIVE” (DAIICHI SANKYO COMPANY, LIMITED, priority 2007, published 2010).

Broadly, the Emax is the greatest response seen or fitted, relative to the assay's reference. In general, IC50 refers to the concentration needed to halve the response being measured. The term EC50 denotes the concentration that produces a half-maximal response.

Where two headings read alike, the source gives them in different places.

In one test the target is T1, human PPARγ2 (Homo sapiens, UniProt P37231).
T1 construct: expressed in transfected cells; host or cells: human osteosarcoma cell line MG63, transiently transfected with pSG5-hPPARγ and pGV-P2-PPRE
T1 sequence (P37231 1-505): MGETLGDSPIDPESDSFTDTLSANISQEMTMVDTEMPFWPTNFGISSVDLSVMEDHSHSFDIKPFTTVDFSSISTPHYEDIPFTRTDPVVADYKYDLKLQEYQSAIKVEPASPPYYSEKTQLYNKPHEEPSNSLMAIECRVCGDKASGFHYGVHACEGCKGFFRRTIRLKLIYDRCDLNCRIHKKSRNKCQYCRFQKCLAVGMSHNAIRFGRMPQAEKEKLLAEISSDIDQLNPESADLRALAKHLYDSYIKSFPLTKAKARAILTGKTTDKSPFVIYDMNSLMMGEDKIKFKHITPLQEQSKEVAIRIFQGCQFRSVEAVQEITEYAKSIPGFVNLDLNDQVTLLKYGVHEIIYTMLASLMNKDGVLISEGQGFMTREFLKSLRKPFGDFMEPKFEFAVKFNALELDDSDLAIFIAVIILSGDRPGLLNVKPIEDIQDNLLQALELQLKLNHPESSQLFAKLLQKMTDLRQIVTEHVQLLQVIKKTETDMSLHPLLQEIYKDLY
Nature of the test: Evaluation of PPARγ modulator activity, PPRE luciferase reporter in MG63 cells (Test Example 2). The format is cell-based. To be noted: for Emax: MG-63; for IC50: in the presence of Compound A, concentration representing (100−Imax)/2; for Imax (%): maximum inhibition of luciferase activity in the presence of Compound A. The method, then: In FIG. 3, the luciferase activity of the positive control group is defined as 100% and the luciferase activity of the control group is defined as 0%.
Polymerase chain reaction (hereinafter “PCR”) primers were designed based on the human PPARγ2 gene sequence (GenBANK accession No. D83233). The recognition sequences for restriction enzyme BglII were added to upstream and downstream regions of a gene encoding human PPARγ2 protein, in which the recognition sequences were necessary for inserting the gene into the restriction site BamHI of the expression plasmid pSG5 (Stratagene) for the gene.
The recognition sequence for restriction enzyme NheI was added to S2 and the recognition sequence for restriction enzyme XhoI was added to AS2 for insertion into the reporter plasmid pGV-P2 (Toyo Ink Mfg. Co., Ltd.).
PCR was carried out using thermostable DNA polymerase Ex-Taq (Takara Shuzo Co., Ltd.) with a human adipose tissue-derived cDNA library (Clontech) as a template and the DNA oligomers S1 and AS1 obtained in Procedure 1 as PCR primers. […] A cycle was repeated 30 times consisting of incubation at 94° C. for one minute, incubation at 55° C. for 30 seconds and incubation at 72° C. for 30 seconds. The resulting DNA fragment of about 1500 bp was partially cleaved by restriction enzyme BglII and inserted into the restriction site BamHI of pSG5 to obtain a human PPARγ expression plasmid pSG5-hPPARγ.
A vector pGV-P2 digest was prepared by digestion with restriction enzymes NheI and XhoI and purification by 1.0% agarose gel electrophoresis. The DNA oligomers S2 and AS2 obtained in Procedure 2 were mixed, incubated in a hot water bath at 94° C. for one minute, and then incubated at 25° C. for one hour to form a double-stranded DNA with S2 and AS2 annealed. Thereafter, the terminals of the double-stranded DNA were phosphorylated using DNA polynucleotide kinase (Toyobo Co., Ltd.) and then ligated to the previously prepared pGV-P2 digest using the restriction sites NheI and XhoI to obtain a reporter plasmid pGV-P2-PPRE having a PPAR response sequence.
The gene was transiently transferred to the human osteosarcoma cell line MG63, and then cells were harvested.
Thereafter, DMSO diluted 20-fold with 10% α-MEM was added to the control group and the positive control group at 5 μl/well. 10% α-MEM was added to the test compound-added group at 95 μl/well. Thereafter, the test compound diluted to various concentrations with DMSO was diluted 20-fold with 10% α-MEM; this was added to the test compound-added group at 5 μl/well.
Thereafter, DMSO was diluted 20-fold with 10% α-MEM; this was added to the control group and the positive control group at 5 μl/well. […] Thereafter, the test compound diluted to various concentrations with DMSO was diluted 20-fold with 10% α-MEM; this was added to the test compound-added group at 5 μl/well.
The cells prepared in Procedures 6 and 7 were cultured for 24 hours and then the medium was removed. […] The mixture was left to stand at room temperature for about 10 minutes and then stirred with a micromixer (TAITEC E-36). The luciferase activity was measured using Analyst (Molecular Devices) and a dose-dependent curve was drawn.
The IC50, Imax, EC50 and Emax of the test compound to be determined are defined as follows.
Here, the concentration of the test compound representing Emax/2 is calculated as EC50. The concentration of the test compound representing (100−Imax)/2 is calculated as IC50. The IC50 and EC50 calculated in this manner were used for evaluating the PPARγ modulator activity.
For orientation: Reporter assays use an easily measured gene product as a stand-in for the process of interest.

The next test relates to KK mice. Description: Hypoglycemic effect in diabetic KK mice (Test Example 1). It counts as in vivo. To be noted: Mus musculus, po, 72 h; male KK mice, diet admixture containing 0.03% of the compound, 3 days, plasma glucose vs control group; read-out: Hypoglycemic rate (%). The text has this:
Six-week-old male KK mice were purchased from CLEA Japan, Inc. and then were fed until 15 to 20 weeks old to develop diabetes. The mice were individually fed during the adaptation period and the test period, and water and feed (FR2, Funabashi Farm) were freely ingested.
At the start of the experiment, after body weight measurement, blood was collected from the tail vein of the mice into a heparin-coated glass tube and centrifuged, and then plasma was separated. The glucose level in the plasma was measured by Glucoloader GXT (A&T Corp.), and individuals having a plasma glucose level of about 350 mg/dl or more were selected. The mice were grouped, each group having 3 to 4 mice, to make the average body weight and the average plasma glucose level similar. Each compound was administered to a compound group with a diet admixture containing 0.03% of the compound. A separate group in which the mice were fed only with diet was a control group.
The experiment period (drug administration period) was three days. The grouping day was the 0th day. On the 3rd day, the body weight was measured and blood was collected from the tail vein to measure the plasma glucose level.
The hypoglycemic rate was determined by the following formula.
Hypoglycemic rate=[(Control group blood glucose level−Compound-administered group blood glucose level)/Control group blood glucose level]×100

The mark [1] stands for this setting: maximum luciferase activity by test compound alone, positive control (Compound A) 100%, control 0%, read-out: Emax (%).
Where [2] appears, read: MG63 cells, luciferase activity.
Setting [3] is: test compound alone, concentration representing Emax/2, MG63 cells, luciferase activity, read-out: EC50.

As to `Cc1cc(Oc2ccc3nc(COc4cccc(C(=O)O)c4)n(C)c3c2)cc(C)c1N.Cl.Cl` [Example 2, 3-{[6-(4-Amino-3,5-dimethylphenoxy)-1-methyl-1H-benzimidazol-2-yl]methoxy}benzoic acid dihydrochloride], on human PPARγ2 (setting [1]), the Emax came out at 70%. The IC50 at human PPARγ2 (setting [2]) turned out to be 56.1 nM. The “Imax (%)” value on human PPARγ2 is listed as −44%. Moreover, at human PPARγ2 (setting [3]), the EC50 came to 3.28 nM. Further, in the test with KK mice, the inhibition in vivo at 0.03 % in diet is 37%.

For `Cl.Cn1c(COc2cccc(C(=O)O)c2)nc2ccc(Oc3ccc(F)c(Cl)c3)cc21` [Example 12, 3-{[6-(3-Chloro-4-fluorophenoxy)-1-methyl-1H-benzimidazol-2-yl]methoxy}benzoic acid hydrochloride], the Emax on human PPARγ2 (setting [1]) was determined as 42%. The IC50 on human PPARγ2 (setting [2]) is 40.4 nM. In addition, the “Imax (%)” value on human PPARγ2 is −43%. Further, the EC50 on human PPARγ2 (setting [3]) was found to be 2.34 nM. The inhibition in vivo at 0.03 % in diet with KK mice was determined as 30%.

Consider `Cl.Cl.Cn1c(COc2cccc(C(=O)O)c2)nc2ccc(Oc3ccccc3)nc21` [Example 16, 3-[(3-Methyl-5-phenoxy-3H-imidazo[4,5-b]pyridin-2-yl)methoxy]benzoic acid dihydrochloride], for which the Emax on human PPARγ2 (setting [1]) was 46%. Besides, the IC50 at human PPARγ2 (setting [2]) worked out at 402 nM. For the same molecule, the “Imax (%)” value on human PPARγ2 is recorded as −44%. In addition, the EC50 on human PPARγ2 (setting [3]) was 26.4 nM. Further, in the test with KK mice, the inhibition in vivo at 0.03 % in diet was determined as 60%.

For the molecule `Cl.Cn1c(COc2cccc(C(=O)O)c2)nc2ccc(Oc3cccc(F)c3)cc21` [Example 8, 3-{[6-(3-Fluorophenoxy)-1-methyl-1H-benzimidazol-2-yl]methoxy}benzoic acid hydrochloride], the Emax on human PPARγ2 (setting [1]) came out at 39%. Moreover, the IC50 on human PPARγ2 (setting [2]) was determined as 73.3 nM. For the same molecule, on human PPARγ2, the “Imax (%)” value is given as −34%. Moreover, the EC50 on human PPARγ2 (setting [3]) was found to be 7.72 nM. Besides, the inhibition in vivo at 0.03 % in diet in the test on KK mice stood at 29%.

As to `Cl.Cn1c(COc2cccc(C(=O)O)c2)nc2ccc(Oc3ccc(Cl)c(F)c3)cc21` [Example 10, 3-{[6-(4-Chloro-3-fluorophenoxy)-1-methyl-1H-benzimidazol-2-yl]methoxy}benzoic acid hydrochloride], the Emax at human PPARγ2 (setting [1]) turned out to be 42%. In addition, at human PPARγ2 (setting [2]), the IC50 turned out to be 33.2 nM. For the same molecule, on human PPARγ2, the “Imax (%)” value is recorded as −50%. Moreover, the EC50 at human PPARγ2 (setting [3]) is 2.06 nM. Moreover, the inhibition in vivo at 0.03 % in diet with KK mice worked out at 35%.

With `Cl.Cn1c(COc2cccc(C(=O)O)c2)nc2ccc(Oc3ccccc3)cc21` [Example 14, 3-[(1-Methyl-6-phenoxy-1H-benzimidazol-2-yl)methoxy]benzoic acid hydrochloride], on human PPARγ2, the EC50 came out at 51.7 nM, the Emax was found to be 54% and the “Imax (%)” value is −35%. In the test with KK mice, the inhibition in vivo at 0.03 % in diet was determined as 33%.
